# What was measured:
# MMP-2 = target: T1, MMP-2 (Homo sapiens, UniProt P08253); test: In vitro MMP inhibition, Ki determination (fluorogenic substrate II); assay type: biochemical; settings: value not in parenthesis; read-out: MMP-2 Ki
# T1 construct: made in house; host or cells: MMP-2-transfected p2AHT2 cells
# T1 sequence (P08253 110-660): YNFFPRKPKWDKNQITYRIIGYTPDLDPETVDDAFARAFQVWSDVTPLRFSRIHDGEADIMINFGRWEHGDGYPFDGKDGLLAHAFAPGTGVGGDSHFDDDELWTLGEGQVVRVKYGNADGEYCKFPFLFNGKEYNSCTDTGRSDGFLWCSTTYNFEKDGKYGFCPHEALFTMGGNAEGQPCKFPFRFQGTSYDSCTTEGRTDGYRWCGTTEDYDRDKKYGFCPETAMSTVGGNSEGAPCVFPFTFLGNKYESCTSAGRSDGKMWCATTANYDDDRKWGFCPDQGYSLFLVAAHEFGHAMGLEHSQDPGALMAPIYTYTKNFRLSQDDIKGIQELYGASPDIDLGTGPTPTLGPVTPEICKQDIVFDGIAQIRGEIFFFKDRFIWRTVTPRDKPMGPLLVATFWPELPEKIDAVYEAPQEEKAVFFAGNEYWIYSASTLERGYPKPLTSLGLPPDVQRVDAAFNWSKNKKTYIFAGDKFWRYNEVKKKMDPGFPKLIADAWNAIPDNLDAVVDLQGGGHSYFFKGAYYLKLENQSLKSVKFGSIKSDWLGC
# MMP-14 = target: T2, MMP-14 (Homo sapiens, UniProt P50281); test: as above; assay type: biochemical; settings: value not in parenthesis; read-out: MMP-14 Ki
# T2 construct: The catalytic domain enzyme was expressed in E. coli inclusion bodies, solubilized in urea; made in house
# Outline: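 Apparent Ki was fitted with Morrison's equation from reaction rates at a single low enzyme level. Enzyme was APMA- or trypsin-activated refolded MMP-14 catalytic domain, buffered at pH 7.5 with 10 mM CaCl2.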
Ki (MMP-2) [nM],Ki (MMP-14) [nM],SMILES
6.77,> 10000,CCCCOc1ccc(N2CCN(S(=O)(=O)C3(C(=O)NO)CC3)CC2)cc1 [Example 63]
1.49,6100,CCC(C)Cc1ccc(N2CCN(S(=O)(=O)C3(C(=O)NO)CCN(CCOC)CC3)CC2)cc1 (stereo not shown) [Example 190]
26.5,3510,CCCCOc1ccc(N2CCN(S(=O)(=O)C3(C(=O)NO)CCSCC3)CC2)cc1 [Example 232]
0.24,453,O=C(NO)C1(S(=O)(=O)N2CCN(c3ccc(SC(F)(F)F)cc3)CC2)CCOCC1 [Example 170]
0.771,3080,CCCCOc1ccc(N2CCN(S(=O)(=O)C3(C(=O)NO)CCN(CCN4CCOCC4)CC3)CC2)cc1 [Example 233]
0.54,1050,CCCCCc1ccc(N2CCN(S(=O)(=O)C3(C(=O)NO)CCN(C(C)=O)CC3)CC2)cc1 [Example 239]
6.82,4110,CCCc1ccc(N2CCN(S(=O)(=O)C3(C(=O)NO)CCN(c4ccc(C)cc4)CC3)CC2)cc1 [Example 171]
0.475,2810,CCCCOc1ccc(N2CCN(S(=O)(=O)C3(C(=O)NO)CCN(Cc4nccn4C)CC3)CC2)cc1 [Example 245]
6.17,414,COCCN1CCC(C(=O)NO)(S(=O)(=O)N2CCN(c3ccccc3)CC2)CC1 [Example 195]
0.28,569,O=C(NO)C1(S(=O)(=O)N2CCN(c3ccc(OC(F)(F)F)cc3)CC2)CCN(C2CC2)CC1 [Example 203]
8.53,> 10000,CCCCOc1ccc(N2CCN(S(=O)(=O)C3(C(=O)NO)CCN(c4ccc5c(c4)OCO5)CC3)CC2)cc1 [Example 221]
50.5,> 10000,O=C(NO)C1(S(=O)(=O)N2CCN(c3ccc4c(c3)OC(F)(F)C(F)(F)O4)CC2)CCOCC1 [Example 67]
3.64,> 10000,CCCCOc1ccc(N2CCN(S(=O)(=O)C3(C(=O)NO)CCN(c4ccc(N(C)C)cc4)CC3)CC2)cc1 [Example 241]
1.39,4570,O=C(NO)C1(S(=O)(=O)N2CCN(c3cnc(CCC(F)(F)F)cn3)CC2)CCOCC1 [Example 218]
0.591,2390,CCCCOc1ccc(N2CCN(S(=O)(=O)C3(C(=O)NO)CCN(C(=O)N(CC)CC)CC3)CC2)cc1 [Example 242]
0.76,3960,CCCCOc1ccc(N2CCN(S(=O)(=O)C3(C(=O)NO)CCN(CCN(CC)CC)CC3)CC2)cc1 [Example 235]
9.28,> 10000,CCCCOc1ccc(N2CCN(S(=O)(=O)C3(C(=O)NO)CCN(c4ccc(C#N)cc4)CC3)CC2)cc1 [Example 225]
5.78,> 10000,CCCCCc1ccc(N2CCN(S(=O)(=O)C3(C(=O)NO)CCOCC3)CC2)nn1 [Example 197]
0.209,1860,CCCCc1ccc(N2CCN(S(=O)(=O)C3(C(=O)NO)CCN(CCOC)CC3)CC2)cc1F [Example 173]

Ki (MMP-2) [nM],Ki (MMP-14) [nM],SMILES
214,> 10000,CCCc1nnc(N2CCN(S(=O)(=O)C3(C(=O)NO)CCOCC3)CC2)s1 [Example 216]
8.26,> 10000,Cc1ccc(N2CCC(C(=O)NO)(S(=O)(=O)N3CCN(c4ccc(OCCCC(F)(F)F)cc4)CC3)CC2)cc1 [Example 161]
0.54,5630,O=C(NO)C1(S(=O)(=O)N2CCN(c3ccc(OCC(F)(F)C(F)(F)F)cc3)CC2)CCOCC1 [Example 212]
1.9,6980,COCCN1CCC(C(=O)NO)(S(=O)(=O)N2CCN(c3ccc(CC(C)C)cc3)CC2)CC1 [Example 192]
0.29,1510,CCCCc1ccc(N2CCN(S(=O)(=O)C(C)C(=O)NO)CC2)nc1 (stereo not shown) [Example 217]
0.34,2050,CCCCOc1ccc(N2CCN(S(=O)(=O)C3(C(=O)NO)CCN(C(=O)N4CCCCC4)CC3)CC2)cc1 [Example 243]
0.49,3650,CCCCOc1c(F)cc(N2CCN(S(=O)(=O)C3(C(=O)NO)CCN(CCOC)CC3)CC2)cc1F [Example 165]
0.599,2760,CCCCOc1ccc(N2CCN(S(=O)(=O)C3(C(=O)NO)CCN(C(=O)c4cccs4)CC3)CC2)cc1 [Example 160]
0.46,2510,CCCCOc1ccc(N2CCN(S(=O)(=O)C3(C(=O)NO)CCN(C(=O)N4CCN(C)CC4)CC3)CC2)cc1 [Example 230]
0.702,2060,CCCCOc1ccc(N2CCN(S(=O)(=O)C3(C(=O)NO)CCN(c4ncccn4)CC3)CC2)cc1 [Example 159]
0.24,621,O=C(NO)C1(S(=O)(=O)N2CCN(c3ccc(-c4ccc(F)cc4)cc3)CC2)CCOCC1 [Example 208]
0.39,199,COc1ccc(-c2ccc(N3CCN(S(=O)(=O)C4(C(=O)NO)CCOCC4)CC3)nc2)cc1 [Example 61]
0.22,1150,O=C(NO)C1(S(=O)(=O)N2CCN(c3ccc(OC(F)(F)C(F)F)cc3)CC2)CCSCC1 [Example 62]
0.633,4620,CCCCCCc1ccc(N2CCN(S(=O)(=O)C3(C(=O)NO)CCN(CCOC)CC3)CC2)cc1 [Example 199]
2.13,2910,COCCN1CCC(C(=O)NO)(S(=O)(=O)N2CCN(c3ccc(C(C)=O)cc3)CC2)CC1 [Example 174]
1.2,5950,CCCCOc1ccc(N2CCN(S(=O)(=O)C3(C(=O)NO)CCN(Cc4ccc(C)o4)CC3)CC2)cc1 [Example 246]
2370,> 10000,O=C(NO)C1(S(=O)(=O)N2CCN(c3nncs3)CC2)CCOCC1 [Example 215]
2.03,5020,CCCCCc1ccc(N2CCN(S(=O)(=O)C3(C(=O)NO)CCN(S(N)(=O)=O)CC3)CC2)cc1 [Example 205]
10.4,> 10000,CCCCOc1ccc(N2CCN(S(=O)(=O)C3(C(=O)NO)CCN(c4cccc(C)c4)CC3)CC2)cc1 [Example 226]

Ki (MMP-2) [nM],Ki (MMP-14) [nM],SMILES
12.6,4280,CC(C)Cc1ccc(N2CCN(S(=O)(=O)C3(C(=O)NO)CCOCC3)CC2)c(F)c1 [Example 213]
0.72,> 10000,COCCN1CCC(C(=O)NO)(S(=O)(=O)N2CCN(c3ccc(OCC(C)C)c(F)c3)CC2)CC1 [Example 166]
8.28,1280,O=C(NO)C1(S(=O)(=O)N2CCN(c3ccc(Cl)nn3)CC2)CCOCC1 [Example 198]
2.67,7880,CCCCOc1ccc(N2CCN(S(=O)(=O)C3(C(=O)NO)CCN(c4ccc(OC)c(OC)c4)CC3)CC2)cc1 [Example 229]
1.21,403,CCc1ccc(N2CCN(S(=O)(=O)C3(C(=O)NO)CCN(CCOC)CC3)CC2)cc1 [Example 193]
0.75,2430,CCCCOc1ccc(N2CCN(S(=O)(=O)C3(C(=O)NO)CCN(C(=O)c4ccco4)CC3)CC2)cc1 [Example 156]
2.02,> 10000,Cc1ccc(-c2ccc(N3CCN(S(=O)(=O)C4(C(=O)NO)CCOCC4)CC3)cc2)cc1 [Example 207]
2.47,1680,COCCSc1ccc(N2CCN(S(=O)(=O)C3(C(=O)NO)CCOCC3)CC2)cc1 [Example 227]
2.33,> 10000,CCCCC(=O)c1ccc(N2CCN(S(=O)(=O)C3(C(=O)NO)CCN(CCOC)CC3)CC2)cc1 [Example 177]
2.03,7120,CCCCCc1ccc(N2CCN(S(=O)(=O)C3(C(=O)NO)CCN(S(C)(=O)=O)CC3)CC2)cc1 [Example 237]
2.58,> 10000,CCCCCc1ccc(N2CCN(S(=O)(=O)C3(C(=O)NO)CCN(S(=O)(=O)N(C)C)CC3)CC2)cc1 [Example 236]
0.536,3960,CCCCOc1ccc(N2CCN(S(=O)(=O)C3(C(=O)NO)CCN(C(=O)NC(C)(C)C)CC3)CC2)cc1 [Example 240]
3.46,7100,CCCCOc1ccc(N2CCN(S(=O)(=O)C3(C(=O)NO)CCN(c4ccsc4)CC3)CC2)cc1 [Example 223]
0.686,1980,CCCCOc1ccc(N2CCN(S(=O)(=O)C3(C(=O)NO)CCN(Cc4ncc[nH]4)CC3)CC2)cc1 [Example 247]
0.524,842,CCCc1ccc(N2CCN(S(=O)(=O)C3(C(=O)NO)CCN(CCOC)CC3)CC2)cc1 [Example 200]
7.88,> 10000,CCCCOc1ccc(N2CCN(S(=O)(=O)C3(C(=O)NO)CCS(=O)(=O)CC3)CC2)cc1 [Example 222]
1.63,6040,CCCCOc1ccc(N2CCN(S(=O)(=O)C3(C(=O)NO)CCN(CCCC(F)(F)F)CC3)CC2)cc1 [Example 238]
18.4,> 10000,O=C(NO)C1(S(=O)(=O)N2CCN(c3ccc(OCCN4CCCC4)cc3)CC2)CCOCC1 [Example 162]
